According to patent US8901071B2, “Compounds and their use” (Novabiotics Limited, priority 2010, dated 2014):
No end group written: not given here.

Tests used:
[1] = system: S. aureus bacterial biofilms; assay: bacterial biofilm assay, Example 2 (optical density at 625 nm; FIGS. 5-6); format: cell-based; conditions: biofilm grown 18 hours, 24 hours incubation, 0 to 1 mg/ml, combinations in equal concentration
Procedure: (§1) P. aeruginosa bacterial biofilms and S. aureus bacterial biofilms were grown in Mueller-Hinton agar in separate 96-well microtitre plates for 18 hours at 37 degrees Celsius. The planktonic cells and medium were then removed and the bacterial biofilms were washed three times with phosphate buffer solution at a pH of around 7. Two-fold dilutions of three different antimicrobial agents in Mueller Hinton broth were then added to the bacterial biofilms. The microtitre plates were incubated at 37 degrees Celsius for 24 hours. The medium was then transferred to a fresh microtitre plate and the optical density of the bacterial biofilm was measured at 625 nm on a microtitre plate reader (BioTek Powerwave, X S, Winooski, USA.
(§2) The antimicrobial agents tested were NP432 alone, a combination of NP432 and NM001 in equal concentration, a combination of NP432 and NP 108 in equal concentration, NP445 alone, a combination of NP445 and NM001 in equal concentration, a combination of NP445 and NP 108 in equal concentration. The antimicrobial agents were tested at concentrations of 0 to 1 mg/ml against P. aeruginosa bacterial biofilms and S. aureus bacterial biofilms.

[2] = system: P. aeruginosa bacterial biofilms; assay: bacterial biofilm assay, Example 2 (optical density at 625 nm; FIGS. 3-4); format: cell-based; conditions: biofilm grown 18 hours, 24 hours incubation, 0 to 1 mg/ml, combinations in equal concentration
Procedure: as §1, §2

mice = assay: lethality of peptide in mice; format: in vivo; conditions: dose of around 5 mg/kg

Sequence	antimicrobial effect against S. aureus bacterial biofilm [1]	antimicrobial effect against P. aeruginosa bacterial biofilms [2]	lethality to mice (mice)
KKFPWRLRLRYGRR (sythetic peptide) [NP445]	antimicrobial effect	antimicrobial effect	–
RRRFRFFFRFRRR [NP432, RRRFRFFFRFRRR]	–	–	non-lethal
